Results published in patent publication US11345711B2, “8,9-dihydroimidazo[1,2-a]pyrimido[5,4-e]pyrimidin-5(6H)-ones” (IMPACT THERAPEUTICS (SHANGHAI), INC, priority 2016, dated 2022).
pIC50: −log10 of the molar value.

Key:
[1] = target: Wee1 (h) (Homo sapiens, UniProt P30291); assay: Wee1 kinase (h) detection method, [γ-33P]-ATP filter assay; assay type: biochemical
[2] = test system: NCI-H1299 cells; assay: MTT based cell viability assay on NCI-H1299 cells; conditions: Homo sapiens, NCI-H1299 cells, read-out: IC50, growth inhibition of NCI-H1299 cells
Procedure, shortened: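 NCI-H1299 cells (1000/well, settled overnight) were exposed for 3 d at 37 °C, 5% CO2, to an eight-point series of 10 μM to 0.01 μM plus DMSO blank, as prepared in DMSO (final DMSO 1‰). MTT (0.5 mg/mL, 4 h) was read at 552/630/690 nm. IC50 came from sigmoidal dose-response fits of survival.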

[3] = test system: LoVo cells; assay: MTT based cell viability assay on LoVo cells; conditions: Homo sapiens, LoVo, 72 h, 3 d, read-out: IC50, growth inhibition of LoVo cells
Procedure, shortened: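 Inhibition of LoVo proliferation was derived as IC50 from a sigmoidal dose-response fit of cell survival. Readout was MTT (0.5 mg/mL, 4 h) with absorbance at 552/630/690 nm, after 3-day treatment at 37 °C. Eight-point series from 10 μM to 0.01 μM, DMSO control, 1% DMSO final.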

Sequence of Wee1 (h) (P30291 whole entry): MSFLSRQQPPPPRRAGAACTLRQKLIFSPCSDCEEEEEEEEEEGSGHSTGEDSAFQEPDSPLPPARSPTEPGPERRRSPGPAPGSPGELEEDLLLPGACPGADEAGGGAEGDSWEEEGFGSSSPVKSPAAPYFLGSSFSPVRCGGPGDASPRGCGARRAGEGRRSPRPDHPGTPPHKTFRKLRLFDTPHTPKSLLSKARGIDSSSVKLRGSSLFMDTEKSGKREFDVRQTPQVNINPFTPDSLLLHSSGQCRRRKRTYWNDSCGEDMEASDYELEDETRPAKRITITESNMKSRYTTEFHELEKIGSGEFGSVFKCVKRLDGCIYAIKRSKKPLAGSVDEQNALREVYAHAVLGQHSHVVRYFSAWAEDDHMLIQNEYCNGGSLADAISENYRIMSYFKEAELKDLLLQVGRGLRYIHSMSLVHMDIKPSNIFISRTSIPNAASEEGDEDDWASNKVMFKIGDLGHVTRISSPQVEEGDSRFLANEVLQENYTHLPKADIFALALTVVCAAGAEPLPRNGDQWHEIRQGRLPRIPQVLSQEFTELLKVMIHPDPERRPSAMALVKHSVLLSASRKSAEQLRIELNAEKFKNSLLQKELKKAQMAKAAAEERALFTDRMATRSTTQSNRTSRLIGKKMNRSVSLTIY

| Compound | Inh. (%) of Wee1 kinase enzyme activity ([1]; C 1 μm compound) [%] | pIC50 [2] | pIC50 [3] | Inh. (%) of Wee1 kinase enzyme activity ([1]; C 0.01 μm compound) [%] | Inh. (%) of Wee1 kinase enzyme activity ([1]; C 0.1 μm compound) [%] |
| --- | --- | --- | --- | --- | --- |
| O=C1c2cnc(Nc3ccc(N4CCNCC4)c(CO)c3)nc2N2CCN=C2N1c1c(Cl)cccc1Cl [Example 180, 6-(2,6-Dichlorophenyl)-2-((3-(hydroxymethyl)-4-(piperazin-1-yl)phenyl)amino)-8,9-dihydroimidazo[1,2-a]pyrimido[5,4-e]pyrimidin-5(6H)-one] | 96 | 5.69 | 5.62 |  |  |
| COc1cccc(Cl)c1N1C(=O)c2cnc(Nc3ccc(N4CCN(C)CC4)c(C)c3)nc2N2CCN=C21 [Example 82, 6-(2-Chloro-6-methoxyphenyl)-2-((3-methyl-4-(4-methylpiperazin-1-yl)phenyl)amino)-8,9-dihydroimidazo[1,2-a]pyrimido[5,4-e]pyrimidin-5(6H)-one] | 83 | 5.92 | 6.02 |  |  |
| CN1CCN(c2ccc(Nc3ncc4c(n3)N3CCN=C3N(c3c(F)cccc3F)C4=O)cc2Cl)CC1 [Example 100, 6-(2,6-Difluorophenyl)-2-((3-chloro-4-(4-methylpiperazin-1-yl)phenyl)amino)-8,9-dihydroimidazo[1,2-a]pyrimido[5,4-e]pyrimidin-5(6H)-one] | 87 | 6.27 | 6.76 |  |  |
| CN(C)CCCOc1ccc(Nc2ncc3c(n2)N2CCN=C2N(c2c(F)cccc2Cl)C3=O)cc1 [Example 106, 6-(2-Chloro-6-fluorophenyl)-2-((4-(3-(dimethylamino)propoxy)phenyl)amino)-8,9-dihydroimidazo[1,2-a]pyrimido[5,4-e]pyrimidin-5(6H)-one] | 94 | 6.08 | 6.48 | 38 | 83 |
| C[C@@H]1CN(c2ccc(Nc3ncc4c(n3)N3CCN=C3N(c3c(Cl)cccc3Cl)C4=O)c(F)c2)C[C@H](C)N1C [Example 66, 6-(2,6-Dichlorophenyl)-2-((2-fluoro-4-((3S,5R)-3,4,5-trimethylpiperazin-1-yl)phenyl)amino)-8,9-dihydroimidazo[1,2-a]pyrimido[5,4-e]pyrimidin-5(6H)-one] | 0 | < 5.00 | < 4.00 |  |  |
| CC(C)N1C(=O)c2cnc(Nc3ccc(N4CCN(C)CC4)cc3)nc2N2CCN=C21 [Example 18, 6-Isopropyl-2-((4-(4-methylpiperazin-1-yl)phenyl)amino)-8,9-dihydroimidazo[1,2-a]pyrimido[5,4-e]pyrimidin-5(6H)-one] | 14 | < 5.00 | < 6.00 |  |  |

Compounds with a higher pIC50 [2], results first:

| Inh. (%) of Wee1 kinase enzyme activity ([1]; C 1 μm compound) [%] | pIC50 [2] | pIC50 [3] | Inh. (%) of Wee1 kinase enzyme activity ([1]; C 0.01 μm compound) [%] | Inh. (%) of Wee1 kinase enzyme activity ([1]; C 0.1 μm compound) [%] | Compound |
| --- | --- | --- | --- | --- | --- |
| 100 | 6.74 | 6.90 | 28 | 79 | CN1Cc2cc(Nc3ncc4c(n3)N3CCN=C3N(c3c(F)cccc3Cl)C4=O)ccc2C(C)(C)C1 [Example 9, 6-(2-Chloro-6-fluorophenyl)-2-((2,4,4-trimethyl-1,2,3,4-tetrahydroisoquinolin-7-yl)amino)-8,9-dihydroimidazo[1,2-a]pyrimido[5,4-e]pyrimidin-5(6H)-one] |
| 92 | 7.01 | 6.83 | 12 | 86 | CN1Cc2cc(Nc3ncc4c(n3)N3CCN=C3N(c3c(Cl)cccc3Cl)C4=O)ccc2C2(CC2)C1 [Example 14, 6-(2,6-Dichlorophenyl)-2-((2′-methyl-2′,3′-dihydro-1′H-spiro[cyclopropane-1,4′-isoquinolin]-7′-yl)amino)-8,9-dihydroimidazo[1,2-a]pyrimido[5,4-e]pyrimidin-5(6H)-one] |
| 88 | 7.02 | 7.37 |  |  | COc1cc(Nc2ncc3c(n2)N2CCN=C2N(c2c(F)cccc2Cl)C3=O)cc(Br)c1N1CCN(C)CC1 [Example 127, 6-(2-Chloro-6-fluorophenyl)-2-((3-bromo-5-methoxy-4-(4-methylpiperazin-1-yl)phenyl)amino)-8,9-dihydroimidazo[1,2-a]pyrimido[5,4-e]pyrimidin-5(6H)-one] |
